The conditions of this series: 101.33 kPa, Liquid.

Numbers after ± are expanded uncertainties.

Consider `CC(C)(C)O` [2-methylpropan-2-ol], for which the mass density by setting is: (308.15 K) 770.365 ± 0.5 kg/m3; (313.15 K) 765.07 ± 0.51 kg/m3; (318.15 K) 759.675 ± 0.52 kg/m3; (323.15 K) 754.193 ± 0.53 kg/m3; (328.15 K) 748.621 ± 0.54 kg/m3; (333.15 K) 742.954 ± 0.55 kg/m3. In addition, the mass density reads like this: (338.15 K) 737.19 ± 0.56 kg/m3; (343.15 K) 731.313 ± 0.56 kg/m3. Further, the viscosity is, setting by setting: (308.15 K) 2.69 ± 0.046 mPa·s; (313.15 K) 2.142 ± 0.037 mPa·s; (318.15 K) 1.737 ± 0.03 mPa·s; (323.15 K) 1.428 ± 0.025 mPa·s; (328.15 K) 1.196 ± 0.022 mPa·s; (333.15 K) 1.016 ± 0.019 mPa·s. Further, the viscosity (338.15 K) is given as 0.8734 ± 0.017 mPa·s and the viscosity (343.15 K) is on record as 0.7603 ± 0.016 mPa·s.

With `CC(C)CO` [2-methyl-1-propanol], the mass density came out at 794.064 ± 0.46 kg/m3 (303.15 K); 790.123 ± 0.46 kg/m3 (308.15 K); 786.12 ± 0.47 kg/m3 (313.15 K); 782.061 ± 0.48 kg/m3 (318.15 K); 777.932 ± 0.48 kg/m3 (323.15 K); 773.732 ± 0.49 kg/m3 (328.15 K). For the same molecule, the mass density reads like this: (333.15 K) 769.448 ± 0.5 kg/m3; (338.15 K) 765.079 ± 0.51 kg/m3; (343.15 K) 760.611 ± 0.51 kg/m3. The viscosity (303.15 K) is 2.649 ± 0.045 mPa·s; the viscosity (308.15 K) is 2.28 ± 0.039 mPa·s; the viscosity (313.15 K) is 1.965 ± 0.034 mPa·s; the viscosity (318.15 K) amounted to 1.692 ± 0.03 mPa·s; the viscosity (323.15 K) came to 1.482 ± 0.026 mPa·s; the viscosity (328.15 K) was 1.268 ± 0.023 mPa·s. In addition, the viscosity amounted to 1.116 ± 0.02 mPa·s (333.15 K), 0.9851 ± 0.019 mPa·s (338.15 K) and 0.8767 ± 0.017 mPa·s (343.15 K).

For the molecule `CCCCO` [butan-1-ol], the mass density (303.15 K) came out at 802.213 ± 0.44 kg/m3; the mass density (308.15 K) was 798.343 ± 0.45 kg/m3; the mass density (313.15 K) was determined as 794.425 ± 0.45 kg/m3; the mass density (318.15 K) is given as 790.465 ± 0.46 kg/m3; the mass density (323.15 K) turned out to be 786.456 ± 0.47 kg/m3; the mass density (328.15 K) is 782.399 ± 0.47 kg/m3. Besides, the mass density reads like this: (333.15 K) 778.281 ± 0.48 kg/m3; (338.15 K) 774.098 ± 0.49 kg/m3; (343.15 K) 769.845 ± 0.49 kg/m3. In addition, the viscosity by setting is: (303.15 K) 2.296 ± 0.039 mPa·s; (308.15 K) 2.025 ± 0.035 mPa·s; (313.15 K) 1.795 ± 0.031 mPa·s; (318.15 K) 1.595 ± 0.028 mPa·s; (323.15 K) 1.417 ± 0.025 mPa·s; (328.15 K) 1.271 ± 0.023 mPa·s. Moreover, the viscosity runs as follows: (333.15 K) 1.138 ± 0.021 mPa·s; (338.15 K) 1.028 ± 0.019 mPa·s; (343.15 K) 0.9306 ± 0.018 mPa·s.

For the molecule `CCC(C)O` (stereo not given) [butan-2-ol], the mass density runs as follows: (303.15 K) 798.351 ± 0.48 kg/m3; (308.15 K) 794.052 ± 0.48 kg/m3; (313.15 K) 789.658 ± 0.49 kg/m3; (318.15 K) 785.159 ± 0.5 kg/m3; (323.15 K) 780.552 ± 0.51 kg/m3; (328.15 K) 775.832 ± 0.51 kg/m3. For the same molecule, the mass density by setting is: (333.15 K) 770.993 ± 0.52 kg/m3; (338.15 K) 766.038 ± 0.53 kg/m3; (343.15 K) 760.962 ± 0.54 kg/m3. For the same molecule, the viscosity reads like this: (303.15 K) 2.607 ± 0.045 mPa·s; (308.15 K) 2.163 ± 0.037 mPa·s; (313.15 K) 1.84 ± 0.032 mPa·s; (318.15 K) 1.557 ± 0.028 mPa·s; (323.15 K) 1.333 ± 0.024 mPa·s; (328.15 K) 1.151 ± 0.021 mPa·s. The viscosity runs as follows: (333.15 K) 1.002 ± 0.019 mPa·s; (338.15 K) 0.8779 ± 0.017 mPa·s; (343.15 K) 0.7769 ± 0.016 mPa·s.

These data come from the NIST ThermoML archive (doi:10.1021/je900722m).
